Assay results taken from PubChem BioAssay AID1996.
≈ marks a conversion by molar mass, not a printed value.

Details: buffer; pH 7.4; 200.0 µM

| SMILES | solubility kinetic |
| --- | --- |
| CCc1ccc(CN2CCC(CO)(CC3CCCCO3)CC2)o1 (stereo not given) | 38.1 µg/mL (≈ 119 µM) |
| Cn1cccc1/C=C(\C#N)C(N)=S | 28.1 µg/mL (≈ 147 µM) |
| OCC1OC(n2cnc3c(NC4CCCC4)ncnc32)C(O)C1O (stereo not given) | > 50.3 µg/mL |
| O=C(COC(=O)c1cccc(S(=O)(=O)N2CCOCC2)c1)NCc1ccccc1 | > 62.8 µg/mL |
| O=S(=O)(NC1CC2CCC1C2)c1ccc(Br)cc1 (stereo not given) | 13.9 µg/mL (≈ 42.1 µM) |
| Cc1onc(-c2ccccc2Cl)c1NC(=O)NCc1cccs1 | 42.6 µg/mL (≈ 122 µM) |
| CCOc1c(O)ccc(/C=C2\SC(=S)NC2=O)c1[N+](=O)[O-] | 6.8 µg/mL (≈ 20.8 µM) |
| Cc1nc(SCC(=O)NC2CC2)c2c(C)c(C)sc2n1 | 11.6 µg/mL (≈ 37.7 µM) |
| CCOC(=O)c1c(C)[nH]c(C(=O)C(C)N2CCCC2)c1C (stereo not given) | 37 µg/mL (≈ 127 µM) |
| Cc1csc(NC(=O)CSCC(=O)O)c1-c1nc2ccccc2s1 | 48.6 µg/mL (≈ 128 µM) |
| C=CCn1cccc(C(=O)Nc2ccc(Cl)cc2)c1=O | 3.4 µg/mL (≈ 11.8 µM) |
| Cc1nc(Nc2ccccc2)sc1C(=O)Nc1ccccc1 | 1.6 µg/mL (≈ 5.17 µM) |
| O=C1CCCN=C(Nc2ccc(F)c(Cl)c2)S1 | 3.1 µg/mL (≈ 11.4 µM) |
| Cc1c(O)c(CN(C)C)cc2c1oc(=O)c1ccccc12 | > 42.5 µg/mL |
| CC(CCc1ccccc1)N1CCN(C)CC1 (stereo not given) | 33.2 µg/mL (≈ 143 µM) |
| c1ccc(Oc2nc(-c3cccnc3)nc3ccccc23)cc1 | 0.7 µg/mL (≈ 2.34 µM) |
| Nc1nccc(-c2ccc(-n3cnc4ccccc43)cc2)n1 | 2 µg/mL (≈ 6.96 µM) |
| Cl.Oc1ccc(Nc2ncnc3c2oc2ccccc23)cc1 | 0.7 µg/mL |
| CC(OC(=O)c1ccccc1)C(=O)NCCC1=CCCCC1 (stereo not given) | > 45.2 µg/mL |
| CC(C)(CNS(=O)(=O)c1ccc(Br)s1)N1CCOCC1 | > 57.5 µg/mL |

| SMILES | solubility kinetic |
| --- | --- |
| COc1ccc(C(=O)CN2C(=O)NC3(CCc4ccccc43)C2=O)cc1 (stereo not given) | 25.3 µg/mL (≈ 72.2 µM) |
| O=C1CCC([N+](=O)[O-])C(c2cc(Br)ccc2F)N1 (stereo not given) | 46.4 µg/mL (≈ 146 µM) |
| Cc1csc(Nc2ccc(Cl)cc2)n1 | 10.5 µg/mL (≈ 46.7 µM) |
| O=C1CN(C(=O)CNC(=O)c2ccc(Cl)cc2Cl)CCN1 | 47.4 µg/mL (≈ 144 µM) |
| O=S(=O)(Nc1cccnc1Cl)c1ccc(-c2ccccc2)cc1 | 47.7 µg/mL (≈ 138 µM) |
| Cc1cc(NC(=O)COC(=O)C(C)Oc2ccc(Cl)cc2Cl)no1 (stereo not given) | 42.2 µg/mL (≈ 113 µM) |
| CCC1CCCCN1C(=O)/C=C/c1ccc2c(c1)OCO2 (stereo not given) | > 43.1 µg/mL |
| CCOC(=O)c1cnc2c(C)cccc2c1NCCCN1CCOCC1 | > 53.6 µg/mL |
| OC(C[n+]1ccccc1)c1ccccc1.[Br-] (stereo not given) | > 42 µg/mL |
| CCOC(=O)C1(CC2CC2)CCN(S(=O)(=O)/C=C/c2ccccc2)CC1 | 3.6 µg/mL (≈ 9.54 µM) |
| O=c1c2ccccc2[nH]c(=S)n1Cc1ccccc1 | < 0.3 µg/mL |
| COc1ccc(C(CC(=O)NCc2ccccc2)C(C)C)cc1 (stereo not given) | 10.1 µg/mL (≈ 32.4 µM) |
| CCOC(=O)N1CCN(Cc2ccc3c(c2)OCO3)CC1 | 41.9 µg/mL (≈ 143 µM) |
| COc1cccc(NC(=O)CN(C)CC(=O)NCC(=O)Nc2ccc(F)cc2)c1 | > 60.4 µg/mL |
| O=C(COC(=O)C1CC1)Nc1ccc(S(=O)(=O)N2CCOCC2)cc1 | > 55.3 µg/mL |
| COc1ccc(Oc2ncccc2[N+](=O)[O-])cc1 | > 36.9 µg/mL |
| O=c1[nH]c(-c2ccc(O)cc2)nc2scc(-c3cccs3)c12 | 0.5 µg/mL (≈ 1.53 µM) |
| O=[N+]([O-])c1ccc(-c2cn(-c3ccccc3F)c(=S)[nH]2)cc1 | 0.6 µg/mL (≈ 1.9 µM) |
| O=C(Nc1nc2ccsc2c(=O)s1)C1CCC1 | 8.1 µg/mL (≈ 30.4 µM) |
| CCCCNC(=O)CCC(=O)N1CCN(C(c2ccccc2)c2ccccc2)CC1.Cl | > 66.6 µg/mL |

| SMILES | solubility kinetic |
| --- | --- |
| Cc1ccc(C(=O)OC(C)C(=O)NC2CCCCC2C)s1 (stereo not given) | 14.6 µg/mL (≈ 47.2 µM) |
| CC1CCC(NC(=O)CSc2nncn2C)CC1 (stereo not given) | > 40.3 µg/mL |
| Cc1ccc(OCC(=O)Nc2c[nH]c(=O)[nH]c2=O)cc1C | 1 µg/mL (≈ 3.46 µM) |
| Cc1sc2ncnc(Sc3ccccc3C(=O)O)c2c1C | 46.9 µg/mL (≈ 148 µM) |
| O=C1CC(=O)N(c2cccc(C(F)(F)F)c2)C(=O)N1 | > 40.8 µg/mL |
| CC(=O)Nc1ccc(N/C=C/C(=O)c2ccc(Cl)cc2)cc1 | 2.4 µg/mL (≈ 7.62 µM) |
| COCCN(C(=S)Nc1cccc(C)c1C)C(C)c1ccco1 (stereo not given) | 40.1 µg/mL (≈ 121 µM) |
| N#C/C(=C\c1ccc(O)c(O)c1)C(=O)Nc1cccc2ncccc12 | 20 µg/mL (≈ 60.4 µM) |
| Cc1cc(OCCN2CCOCC2)ccc1C(C)C.Cl | 34.2 µg/mL |
| CSc1cccc(NC(=O)CC2Oc3ccccc3NC2=O)c1 (stereo not given) | 1.8 µg/mL (≈ 5.48 µM) |
| CCn1c(COc2ccc(C)cc2)nc2ccccc21 | 2.2 µg/mL (≈ 8.26 µM) |
| CCOC(=O)C(O)C1CCc2c([nH]c3ccc(C)cc23)C1=O (stereo not given) | 22.6 µg/mL (≈ 75 µM) |
| CCNC(=O)C1CCCN(c2nc(C)cc(C)n2)C1 (stereo not given) | > 39.4 µg/mL |
| Cc1ccc(NC(=O)CCCNC(=O)c2ccc(Cl)cc2)c(O)c1 | 13.1 µg/mL (≈ 37.8 µM) |
| CCc1nn(C)c(N)c1C.Cl | > 26.3 µg/mL |
| O=C(NCc1ccccc1)c1c[nH]c2ccccc2c1=O | 39.3 µg/mL (≈ 141 µM) |
| Cc1ccccc1OCC(=O)OCC(=O)Nc1ccc(Cl)cn1 | 47.2 µg/mL (≈ 141 µM) |
| COc1ccc(C(=O)NCC(C)(C)CNC(=O)c2ccc(OC)cc2)cc1 | 11 µg/mL (≈ 29.7 µM) |
| S=c1[nH]nc(C2CCCCC2)o1 | > 27.6 µg/mL |
| CC(=O)c1ccc[n+](CC(=O)NC(C)c2ccccc2)c1.[Cl-] (stereo not given) | > 47.8 µg/mL |
